Source: PubChem BioAssay AID192 (DTP/NCI, 2004)
“And” between values parts separate entries of the source, which are not always exact repeats. Equal values may be shown once. Toxic doses and inconclusive results are not listed. The calls were made as follows: active = survival T/C of 150% or more; inactive = T/C below 125% in these data.

System: BDF1 mice, B16 melanoma ip, median survival T/C
Assay: NCI In Vivo Anticancer Drug Screen. Data for tumor model B16 Melanoma (intraperitoneal) in B6D2F1 (BDF1) mice
Settings: endpoint: median survival time, higher = longer survival
Outline: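 Vehicle-treated animals serve as the reference (C); treated animals (T) are scored for survival or tumor size after tumor transplantation.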

[1] = dose: 100.0 mg/kg/injection, schedule: Q01DX009 (ip), vehicle: saline with Tween-80
[2] = dose: 200.0 mg/kg/injection, schedule: Q01DX009 (ip), vehicle: saline with Tween-80
[3] = dose: 400.0 mg/kg/injection, schedule: Q01DX009 (ip), vehicle: saline with Tween-80
[4] = dose: 50.0 mg/kg/injection, schedule: Q01DX009 (ip), vehicle: saline
[5] = dose: 6.25 mg/kg/injection, schedule: Q01DX009 (ip), vehicle: saline
[6] = dose: 12.5 mg/kg/injection, schedule: Q01DX009 (ip), vehicle: saline
[7] = dose: 25.0 mg/kg/injection, schedule: Q01DX009 (ip), vehicle: saline
[8] = dose: 100.0 mg/kg/injection, schedule: Q01DX009 (ip), vehicle: saline
[9] = dose: 200.0 mg/kg/injection, schedule: Q01DX009 (ip), vehicle: saline

Measured: T/C

COC(=O)CCC(=O)N1CCOCC1
inactive: [1] 95 % of control | dose: 100.0 mg/kg/injection, schedule: Q04DX003 (ip), vehicle: saline with Tween-80 100 % of control | [2] 93 % of control | dose: 200.0 mg/kg/injection, schedule: Q04DX003 (ip), vehicle: saline with Tween-80 102 % of control | [3] 97 % of control | dose: 400.0 mg/kg/injection, schedule: Q04DX003 (ip), vehicle: saline with Tween-80 102 % of control

O=C(O)C(/C=C/c1ccccc1)c1ccccc1 (stereo unspecified)
inactive: [1] 95 % of control | [3] 105 % of control

Nc1n[nH]c(N)n1
inactive: [4] 99 % of control and 100 % of control | dose: 100.0 mg/kg/injection, schedule: Q01DX009 (ip), vehicle: Klucel (hydroxypropylcellulose) (HPC) 100 % of control (2×) and 108 % of control | dose: 100.0 mg/kg/injection, schedule: Q01DX009 (ip), vehicle: saline sonified 90 % of control | [1] 95 % of control and 97 % of control and 120 % of control | dose: 200.0 mg/kg/injection, schedule: Q01DX009 (ip), vehicle: Klucel (hydroxypropylcellulose) (HPC) 94 % of control and 102 % of control (2×) | dose: 200.0 mg/kg/injection, schedule: Q01DX009 (ip), vehicle: saline sonified 97 % of control and 100 % of control | [2] 100 % of control and 107 % of control | dose: 400.0 mg/kg/injection, schedule: Q01DX009 (ip), vehicle: Klucel (hydroxypropylcellulose) (HPC) 92 % of control and 108 % of control and 110 % of control | dose: 400.0 mg/kg/injection, schedule: Q01DX009 (ip), vehicle: saline sonified 95 % of control and 97 % of control | dose: 800.0 mg/kg/injection, schedule: Q01DX009 (ip), vehicle: Klucel (hydroxypropylcellulose) (HPC) 86 % of control and 107 % of control and 111 % of control | dose: 800.0 mg/kg/injection, schedule: Q01DX009 (ip), vehicle: saline sonified 92 % of control and 100 % of control | dose: 1600.0 mg/kg/injection, schedule: Q01DX009 (ip), vehicle: saline with Tween-80 93 % of control | dose: 3200.0 mg/kg/injection, schedule: Q01DX009 (ip), vehicle: saline with Tween-80 97 % of control

COC(=O)c1ccccc1C=C(c1ccc([N+](=O)[O-])cc1)c1ccc([N+](=O)[O-])cc1
inactive: dose: 50.0 mg/kg/injection, schedule: Q01DX009 (ip), vehicle: saline with Tween-80 97 % of control | [1] 113 % of control | [2] 91 % of control

COCc1ccc(COC)cc1
inactive: dose: 100.0 mg/kg/injection, schedule: Q04DX003 (ip), vehicle: saline 102 % of control | dose: 200.0 mg/kg/injection, schedule: Q04DX003 (ip), vehicle: saline 102 % of control | dose: 400.0 mg/kg/injection, schedule: Q04DX003 (ip), vehicle: saline 100 % of control

CCC(=O)Nc1cccc(Cl)c1
inactive: dose: 75.0 mg/kg/injection, schedule: Q04DX003 (ip), vehicle: saline with Tween-80 110 % of control | dose: 150.0 mg/kg/injection, schedule: Q04DX003 (ip), vehicle: saline with Tween-80 97 % of control | dose: 300.0 mg/kg/injection, schedule: Q04DX003 (ip), vehicle: saline with Tween-80 100 % of control

CNC(=O)Oc1c(C)occc1=O
inactive: [5] 100 % of control | [6] 90 % of control | [7] 100 % of control | [4] 97 % of control

CC1(C)OC(=O)N(CO)C1=O
inactive: [5] 95 % of control | [6] 94 % of control and 109 % of control | [7] 94 % of control and 115 % of control | [4] 108 % of control and 115 % of control | [8] 114 % of control and 115 % of control | [9] 109 % of control and 117 % of control

NC(Cc1cc(Cl)c(O)c(Cl)c1)C(=O)O (stereo unspecified)
inactive: [8] 94 % of control | dose: 150.0 mg/kg/injection, schedule: Q01DX009 (ip), vehicle: saline 100 % of control | [9] 98 % of control

CS(=O)(=O)OCC1CCCCO1 (stereo unspecified)
inactive: dose: 100.0 mg/kg/injection, schedule: Q04DX003 (ip), vehicle: Klucel (hydroxypropylcellulose) (HPC) 92 % of control and 100 % of control | dose: 200.0 mg/kg/injection, schedule: Q04DX003 (ip), vehicle: Klucel (hydroxypropylcellulose) (HPC) 100 % of control | dose: 400.0 mg/kg/injection, schedule: Q04DX003 (ip), vehicle: Klucel (hydroxypropylcellulose) (HPC) 104 % of control and 108 % of control
